Experimental data reported in patent US20150175666A1, “PEPTIDES DERIVED FROM HIV GP41 FOR TREATING T-CELL MEDIATED PATHOLOGIES” (Yeda Research and Development Co. Ltd., priority 2012, published 2015).

Tests used:
[1] = In vivo toxicity in naïve mice; design: species or system C57BL mice; settings: 50 mg/kg i.v., n=3
Procedure: First, the toxicity of the peptide was investigated by injecting naïve C57BL mice i.v. with 50 mg/kg of the peptides. […] Then, C57Bl/6J mice that were induced to develop clinical EAE by immunization with MOG35-55/CFA were given a dose of the peptide that was 100-fold less than the one examined in the toxicity assay, i.e. 10 μg per mouse (0.5 mg/kg), or PBS as a control. On day 10 post immunization, prior to the onset of clinical signs of EAE, the lymph node cells (LNCs) from each treatment group were cultured for 72 h in microtiter wells in triplicate (0.5×10^6/well) in the absence or presence of MOG35-55 (2.5 or 5 μg/ml; SEQ ID NO: 15). [H3] Thymidine was added for the last 18 h. The LNCs were analyzed ex vivo for their recall proliferative response to the immunizing MOG35-55 peptide and for secretion of pro-inflammatory cytokines.

[2] = tested on: human red blood cells (RBCs); assay: Hemolysis of human red blood cells; type: cell-based; settings: up to 100-fold IC50, maximal concentration examined (100 μM, 1 hr)
Procedure: Fresh human red blood cells (RBCs) were rinsed two times with PBS, followed by centrifugation for 7 min at 2000 rpm and resuspension in PBS. Peptides, at various concentrations, were dissolved in PBS and added to 50 μl of the stock hemolysis of human red blood cell (hRBC) solution in PBS for a final volume of 100 μl (final erythrocyte concentration, 4% (v/v)). The resulting suspension was incubated with agitation for 60 min at 37° C. The samples were then centrifuged at 2000 rpm for 7 min. The release of hemoglobin was monitored by measuring the absorbance of the supernatant at 540 nm. Controls for zero hemolysis (blank) and 100% hemolysis consisted of hRBCs suspended in PBS and PBS with 1% Triton, respectively.
Hemolysis of red blood cells (RBCs) is often used to detect membranolytic activity of peptides. Hemolytic activity was measured by the release of hemoglobin into the media (OD 540 nm). Triton (1% v/v) served as a control for a hemolytic agent. Importantly, the peptide was not hemolytic up to 100-fold more than the IC50 of the peptide, the maximal concentration examined (FIG. 3H).

[3] = tested on: T cells (Jurkat T cells, MOG35-55-specific T cells); assay: XTT cytotoxicity assay; type: cell-based, human and murine; settings: up to maximal concentration examined (20 μM, FIG. 3G)
Procedure: Aliquots of 2.5×10^4 of the cells (from Jurkat E6-1, T-cell line) were distributed onto a 96-well plate (Falcon) in the presence of various peptide concentrations and incubated for 24 h. Wells in the last two columns served as blank (medium only), and 100% survival controls (cells and medium only), respectively. After incubation, the XTT reaction solution benzene sulfonic acid hydrate and N-methyl dibenzopyrazine methyl sulfate, mixed in a proportion of 50:1, was added for 2 more hr. Optical density was read at a 450-nm wavelength in an enzyme-linked immunoabsorbent assay plate reader. LC50 (the concentration at which 50% of the cells die) was determined relative to the control, 2.5×10^4 cells in medium. All assays were performed in duplicate.
The viability of the cells was analyzed by an XTT cytotoxicity assay. The peptide was not toxic to T cells up to 20-fold more than the IC50 of the peptide, the maximal concentration examined (FIG. 3G).

CC[C@H](C)[C@H](NC(=O)[C@H](CCC(N)=O)NC(=O)[C@H](CCC(=O)O)NC(=O)[C@H](CC(C)C)NC(=O)[C@H](CO)NC(=O)[C@H](CCCCN)NC(=O)[C@H](CC(N)=O)NC(=O)[C@@H](N)CO)C(=O)N[C@@H](Cc1c[nH]c2ccccc12)C(=O)N[C@@H](CC(N)=O)C(=O)N[C@@H](Cc1c[nH]cn1)C(=O)N[C@H](C(=O)N[C@H](C(=O)N[C@@H](Cc1c[nH]c2ccccc12)C(=O)N[C@@H](CCSC)C(=O)N[C@@H](CCC(=O)O)C(=O)N[C@@H](Cc1c[nH]c2ccccc12)C(=O)N[C@@H](CC(=O)O)C(N)=O)[C@@H](C)O)[C@@H](C)O [PEP 6, SNKSLEQIWNHTTWMEWD]
toxic effect in mice [1]: No toxic effect
hemolytic activity [2]: not hemolytic
toxicity to T cells (viability) [3]: not toxic
